# “And” between values parts separate entries of the source, which are not always exact repeats. Identical values can stand only once.
# Assays:
# Vero cells = experiment: Cytotoxicity resazurin assay; assay type: cell-based; conditions: Chlorocebus sabaeus, 48 hours, ±standard deviation, maximum concentration 2 mM
# Description: The cytotoxicity of the synthesised compounds was evaluated using the resazurin assay. The assay involves live cells converting oxidized blue resazurin dye to pink, highly fluorescent resorufin through irreversible enzymatic reduction.[44] This non‐toxic reagent is a useful instrument for determining drug toxicity and cell growth.
# Dulbecco's modified Eagle's medium (DMEM) with high glucose (Separations) supplemented with 1 % L‐glutamine, non‐essential amino acids, and penicillin‐streptomycin (Sigma Aldrich), and 10 % fetal bovine serum (Thermofisher Scientific) was used to cultivate Vero cells. The cells were kept at 37 °C and 5 % CO2 in a humidified environment. For the assay, 96 well plates were prepared by pipetting 100 μL of cell suspension (60 000 cells/mL) per well and incubating the plates for 24 hours. The cells were then treated with seven two‐fold concentration dilutions of: (1) 1 μM emetine dihydrochloride (Sigma Aldrich) solution (positive control); (2) 2 mM experimental compound solutions. Cell‐free growth medium was included as a blank. The treated plates were incubated for 48 hours.
# To initiate the resazurin assay, 50 μL of sterile‐filtered resazurin sodium salt (Sigma Aldrich) solution (0.01 % in phosphate‐buffered saline (PBS)) was added to the prepared plates and then incubated for 2 hours. A Thermofisher Scientific's GO Multiscan plate reader was used to measure the absorbance at 570 and 600 nm. SkanIt 4.0 Research Edition software was used to perform the data analysis for every biological replicate. After subtracting background absorbance (600 nm) from the 570 nm absorbance data, the mean absorbance was computed, and the percentage of viable cells was estimated using the formula below: Cellviability%=(ΔAbssample-ΔAbsblank)/(ΔAbsnegcontrol-ΔAbsblank)X100
# GraphPad Prism 5 was used to calculate the IC50 and Z‐score for each compound's biological replicate. The mean IC50 of the biological replicates and standard deviation (SD) was calculated to determine the final IC50 of each compound.
# [1] = test system: L. donovani strain 1S amastigote; design: method as in PMID 33491807; conditions: previous study; cited from earlier work
# [2] = test system: L. major intramacrophage amastigotes; experiment: Intramacrophage antileishmanial growth inhibition assay; assay type: cell-based, Leishmania major; conditions: for inhibition at 10 µM: Leishmania major, L. major strain IR‐173 (as headed) intramacrophage amastigotes, read-out: Anti‐amastigote growth inhibition (%); for host cell and parasite death in L. major anti‐amastigote screening: 2 mM of compound, L. major only
# Description: (§1) A modified resazurin assay[47, 48] and the two Leishmania strains were also used to assess the efficacy of synthesised compounds against intramacrophage parasites.
# (§2) Human monocytic leukemia (THP‐1) cells were cultured in RPMI 1640 medium with L‐glutamine (Sigma Aldrich) supplemented with, 1 % penicillin/streptomycin solution (Lonza), 10 % fetal bovine serum (FBS; Thermofisher Scientific) and 2 g/L sodium bicarbonate (Sigma Aldrich). The cells were maintained in a humidified environment at 37 °C and 5 % CO2.
# (§3) For the intramacrophage assay, a 500 000 cells/mL THP‐1 cell suspension was prepared, 25 ng/mL phorbol 12‐myristate 13‐acetate (PMA) added and the suspension seeded in 96 well plates (Nunc, Thermofisher Scientific) at 200 μL/well. Cell‐free growth medium was included as the blank. The plates were incubated for 48 hours in a humidified environment at 37 °C and 5 % CO2 to encourage the differentiation of the suspended cells to adherent macrophages.
# (§4) To eliminate non‐adherent cells after the PMA treatment, the plates were carefully washed once with warm PBS. Then, a premade promastigote suspension ([…]) was added. The suspension consisted of stationary phase promastigotes in THP‐1 cell growth medium, with a multiplicity of infection (MOI) of 30 : 1. Parasite‐free medium was also added to selected THP‐1 cell‐containing wells to serve as parasite blank. The plates were thoroughly rinsed four times with warm PBS to get rid of extracellular parasites after being cultured for 24 hours to encourage macrophage infection. The cells were then treated with 160 μL of growth medium and 40 μL of either solvent (parasite blank and negative control with parasites) or 40 μL of compound solutions. For a dual‐point activity screening, 10 μM and 2 mM of compound were prepared in separate plates. Amphothericin B (10 μM) served as the standard antileishmanial drug. The plates were incubated for 72 hours in a humidified environment at 37 °C and 5 % CO2.
# (§5) For the plates treated with 10 μM of compound, any serum and extracellular promastigotes that remained were carefully removed from the wells by rinsing with warm PBS. The wells were then treated with 20 μL of 0.05 % sodium dodecyl sulphate (SDS; Sigma Aldrich) in PBS for 30 sec to lyse the macrophages. Lysis was terminated with the addition of 180 μL promastigote growth medium with 10 % FBS. For the resazurin assay, 10 μL of resazurin solution (0.025 % in PBS) was added to each well and the plates were further incubated at 37 °C in for 72 hours in the dark to measure amastigote recovery to proliferative promastigotes.
# Any remaining extracellular promastigotes were afterwards carefully removed from the wells by rinsing with warm PBS. The wells were then treated with 50 μL of resazurin solution (0.01 % in PBS) and the plates were further incubated at 37 °C for 4 hours in the dark to assess host cell viability.
# (§6) A Thermofisher Scientific's GO Multiscan plate reader was used to measure absorbance at 570 nm and 600 nm. SkanIt 4.0 Research Edition software was used to perform the data analysis for every biological replicate. Background absorbance (600 nm) was subtracted from the 570 nm absorbance data and the mean absorbance was computed.
# (§7) For the activity screening, the following formula was used to determine growth inhibition percentage: Growthinhibition%=100-[(ΔAbssample-ΔAbsblank)/(ΔAbsnegcontrol-ΔAbsblank)X100]
# Vero = test system: Vero; design: method as in PMID 33491807; conditions: cited from earlier work
# [3] = test system: L. donovani 1S promastigotes; design: method as in PMID 33491807; conditions: read-out: L. donovani 1S promas. IC50; cited from earlier work
# [4] = test system: Leishmania donovani (strain 9515 (MHOM/IN/95/9515)) promastigotes; experiment: Antipromastigote resazurin assay; assay type: cell-based; conditions: for IC50 / inhibition at 10 µM: Leishmania donovani; for IC50: promastigotes, maximum concentration 2 mM, ±standard deviation, read-out: L. donovani 9515 antipromastigote IC50; for inhibition at 10 µM: L. donovani strain 9515 promastigotes, read-out: Antipromastigote growth inhibition (%)
# Description: The antipromastigote activity of synthesised compounds was evaluated using a modified method of the resazurin assay[45, 46] against two Leishmania strains.
# Leishmania donovani (strain 9515 (MHOM/IN/95/9515)) and L. major (strain NIH S (MHOM/SN/74/Seidman)) promastigotes were cultured in M199 with Hank's salts and 0.68 mM L‐glutamine (Sigma Aldrich) supplemented with 0.0005 % hemin, 0.0001 % biotin, 0.1 mM adenine (Sigma Aldrich), 10 % fetal bovine serum, 50 U/mL Penicillin/Streptomycin solution, 4.2 mM sodium bicarbonate and 25 mM Hepes buffer. The promastigotes were maintained at an adjusted pH of 7.3–7.4 growth medium at 26 °C. […] Amphothericin B (10 μM) served as the standard antileishmanial drug and parasite‐free growth medium was included as the blank. The plates were incubated for 48 hours at 26 °C in humidified environment.
# Following the initial incubation, 50 μL of resazurin solution (0.01 % in PBS) was added to each well and the plates underwent further incubation at 26 °C for 24 hours in the dark. A Thermofisher Scientific's GO Multiscan plate reader was used to measure absorbance at 570 nm and 600 nm. SkanIt 4.0 Research Edition software was used to perform the data analysis for every biological replicate. Background absorbance (600 nm) was subtracted from the 570 nm absorbance data and the mean absorbance was computed. The cell viability and data analysis were performed as indicated in the cytotoxicity assay.
# [5] = test system: L. donovani strain 9515 intramacrophage amastigotes; experiment: Intramacrophage antileishmanial growth inhibition assay; assay type: cell-based; conditions: Leishmania donovani, read-out: Anti‐amastigote growth inhibition (%)
# Description: as §1, §2, §3, §4, §5, §6, §7
# [6] = test system: L. major (strain NIH S (MHOM/SN/74/Seidman)) promastigotes; experiment: Antipromastigote resazurin assay; assay type: cell-based, Leishmania major; conditions: for IC50 / inhibition at 10 µM: Leishmania major; for IC50: promastigotes, maximum concentration 2 mM, ±standard deviation; for inhibition at 10 µM: L. major strain IR‐173 (as headed) promastigotes, read-out: Antipromastigote growth inhibition (%)
smiles,measurement,setting,value
"O=S1(=O)NC=Nc2ccccc21 [Compound 1, 2H‐Benzo[e][1,2,4]thiadiazine‐1,1‐dioxide]",IC50,Vero cells,323 ± 215 µM
same,activity against L. donovani strain 1S amastigote,[1],sub‐micromolar activity
same,inhibition at 10 µM,[2],0%
same,IC50,Vero,> 100 µM
same,IC50,[3],< 10 µM and 7.33 µM
same,SI1: Selectivity index=IC50 Vero/L. donovani 9515 antipromastigote IC50,[4],0.53
same,IC50,[4],612 ± 30.9 µM
same,inhibition at 10 µM,[4],10%
same,melting point,,223 to 226 °C
same,inhibition at 10 µM,[5],0%
same,SI2: Selectivity index=IC50 Vero/L. major antipromastigote IC50,[6],0.38
same,IC50,[6],861 ± 46.5 µM
same,inhibition at 10 µM,[6],0%
"O=S1(=O)c2ccccc2N=CN1CCO [Compound 2, 2‐(2‐Hydroxyethyl)‐2H‐benzo[e][1,2,4]thiadiazine‐1,1‐dioxide]",IC50,Vero cells,752 ± 174 µM
same,inhibition at 10 µM,[2],0%
same,SI1: Selectivity index=IC50 Vero/L. donovani 9515 antipromastigote IC50,[4],0.90
same,IC50,[4],839 ± 41.9 µM
same,inhibition at 10 µM,[4],0%
same,melting point,,167 to 170 °C
same,inhibition at 10 µM,[5],0%
same,SI2: Selectivity index=IC50 Vero/L. major antipromastigote IC50,[6],0.70
same,inhibition at 10 µM,[6],0%
"O=S1(=O)c2ccccc2N=CN1CCOc1ccc(Br)cc1 [Compound 10, 2‐[2‐(4‐Bromophenoxy)ethyl]‐2H‐benzo[e][1,2,4]thiadiazine‐1,1‐dioxide]",IC50,Vero cells,663 ± 24 µM
same,inhibition at 10 µM,[2],0%
same,SI1: Selectivity index=IC50 Vero/L. donovani 9515 antipromastigote IC50,[4],0.73
same,IC50,[4],906 ± 62.1 µM
same,inhibition at 10 µM,[4],0%
same,melting point,,217 to 220 °C
same,inhibition at 10 µM,[5],0%
same,SI2: Selectivity index=IC50 Vero/L. major antipromastigote IC50,[6],0.47
same,inhibition at 10 µM,[6],0%
"C=CCOCCN1C=Nc2ccccc2S1(=O)=O [Compound 13, 2‐[2‐(Allyloxy)ethyl]‐2H‐benzo[e][1,2,4]thiadiazine‐1,1‐dioxide]",IC50,Vero cells,531 ± 15.7 µM
same,host cell and parasite death in L. major anti‐amastigote screening,[2],killed both parasite and host cell
same,inhibition at 10 µM,[2],0%
same,IC50,[4],360 ± 12.5 µM
same,inhibition at 10 µM,[4],15%
same,inhibition at 10 µM,[5],0%
same,SI2: Selectivity index=IC50 Vero/L. major antipromastigote IC50,[6],1.17
same,IC50,[6],455 ± 9.55 µM
same,inhibition at 10 µM,[6],0%
"C#CCN1C=Nc2ccccc2S1(=O)=O [Compound 14, 2‐(Prop‐2‐yn‐1‐yl)‐2H‐benzo[e][1,2,4]thiadiazine‐1,1‐dioxide]",IC50,Vero cells,535 ± 21.8 µM
same,host cell and parasite death in L. major anti‐amastigote screening,[2],killed both parasite and host cell
same,inhibition at 10 µM,[2],0%
same,SI1: Selectivity index=IC50 Vero/L. donovani 9515 antipromastigote IC50,[4],2.25
same,IC50,[4],238 ± 14.5 µM
same,inhibition at 10 µM,[4],1%
same,inhibition at 10 µM,[5],0%
same,SI2: Selectivity index=IC50 Vero/L. major antipromastigote IC50,[6],2.89
same,IC50,[6],185 ± 22.1 µM
same,inhibition at 10 µM,[6],23%

# — article PMC11741150, “Synthesis and In Vitro Antileishmanial Efficacy of Novel Ethylene Glycol Analogues of Benzothiadiazine‐1,1‐dioxide” (Chemistry & Biodiversity, 2024)
